Data published in PubChem BioAssay (NCI).
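GI50 marks 50% less growth. TGI denotes the concentration required for complete inhibition of growth.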

Columns and labels:
Test in all cases: inhibition of tumour cell growth, NCI panel, 384-well format; in the data active means GI50 below about 0.43 µM; inactive means the rest
[1] = test system: 786-0 renal
[2] = test system: A498 renal
[3] = test system: A549 NSCLC
[4] = test system: ACHN renal
[5] = test system: CAKI-1 renal
[6] = test system: CCRF-CEM leukemia
[7] = test system: COLO 205 colon
[8] = test system: DU-145 prostate
[9] = test system: HCC-2998 colon
[10] = test system: HCT-116 colon
[11] = test system: HCT-15 colon
[12] = test system: HL-60(TB) leukemia
[13] = test system: HOP-92 NSCLC
[14] = test system: HT29 colon
[15] = test system: IGROV1 ovarian
[16] = test system: K-562 leukemia
[17] = test system: KM12 colon
[18] = test system: LOX IMVI melanoma
[19] = test system: M14 melanoma
[20] = test system: MALME-3M melanoma
[21] = test system: MCF7 breast
[22] = test system: MDA-MB-231 breast
[23] = test system: MDA-MB-435 melanoma
[24] = test system: MDA-MB-468 breast
[25] = test system: MOLT-4 leukemia
[26] = test system: NCI-H226 lung
[27] = test system: NCI-H23 lung
[28] = test system: NCI-H322M lung
[29] = test system: NCI-H460 NSCLC
[30] = test system: NCI-H522 lung
[31] = test system: NCI/ADR-RES ovarian
[32] = test system: OVCAR-3 ovarian
[33] = test system: OVCAR-4 ovarian
[34] = test system: OVCAR-5 ovarian
[35] = test system: OVCAR-8 ovarian
[36] = test system: PC-3 prostate
[37] = test system: RPMI-8226 leukemia
[38] = test system: RXF 393 renal
[39] = test system: SF-268 CNS
[40] = test system: SF-295 CNS
[41] = test system: SF-539 CNS
[42] = test system: SK-MEL-2 melanoma
[43] = test system: SK-MEL-28 melanoma
[44] = test system: SK-MEL-5 melanoma
[45] = test system: SK-OV-3 ovarian
[46] = test system: SN12C renal
[47] = test system: SNB-19 CNS
[48] = test system: SR leukemia
[49] = test system: SW-620 colon
[50] = test system: T-47D breast
[51] = test system: TK-10 renal
[52] = test system: U251 glioblastoma
[53] = test system: UACC-257 melanoma
[54] = test system: UACC-62 melanoma
[55] = test system: UO-31 renal

CCc1cc(Nc2nccc(-c3c(-c4ccc(OC)c(C(=O)Nc5c(F)cccc5F)c4)nc4ccccn34)n2)c(OC)cc1N1CCC(N2CCN(S(C)(=O)=O)CC2)CC1
inactive: GI50 [1] > 100 µM | GI50 [2] > 100 µM | GI50 [3] > 100 µM | GI50 [4] > 100 µM | GI50 [5] > 100 µM | GI50 [6] > 100 µM | GI50 [7] > 100 µM | GI50 [8] > 100 µM | GI50 [9] > 100 µM | GI50 [10] > 100 µM | GI50 [11] > 100 µM | GI50 [12] > 100 µM | GI50 [13] > 100 µM | GI50 [14] > 100 µM | GI50 [15] > 100 µM | GI50 [16] > 100 µM | GI50 [17] > 100 µM | GI50 [18] > 100 µM | GI50 [19] > 100 µM | GI50 [20] > 100 µM | GI50 [21] > 100 µM | GI50 [22] 18.6 µM | GI50 [23] > 100 µM | GI50 [24] 0.935 µM | GI50 [25] 0.645 µM | GI50 [26] > 100 µM | GI50 [27] > 100 µM | GI50 [28] > 100 µM | GI50 [29] > 100 µM | GI50 [30] > 100 µM | GI50 [31] > 100 µM | GI50 [32] > 100 µM | GI50 [33] > 100 µM | GI50 [34] > 100 µM | GI50 [35] 1.79 µM | GI50 [36] > 100 µM | GI50 [37] 0.908 µM | GI50 [38] 0.75 µM | GI50 [39] > 100 µM | GI50 [40] > 100 µM | GI50 [41] > 100 µM | GI50 [42] > 100 µM | GI50 [43] > 100 µM | GI50 [44] > 100 µM | GI50 [45] > 100 µM | GI50 [46] > 100 µM | GI50 [47] > 100 µM | GI50 [48] 0.932 µM | GI50 [49] > 100 µM | GI50 [50] 0.587 µM | GI50 [51] > 100 µM | GI50 [52] > 100 µM | GI50 [53] > 100 µM | GI50 [54] > 100 µM | GI50 [55] > 100 µM
> 100 µM: TGI [1] | TGI [2] | TGI [3] | TGI [4] | TGI [5] | TGI [6] | TGI [7] | TGI [8] | TGI [9] | TGI [10] | TGI [11] | TGI [12] | TGI [13] | TGI [14] | TGI [15] | TGI [16] | TGI [17] | TGI [18] | TGI [19] | TGI [20] | TGI [21] | TGI [22] | TGI [23] | TGI [24] | TGI [25] | TGI [26] | TGI [27] | TGI [28] | TGI [29] | TGI [30] | TGI [31] | TGI [32] | TGI [33] | TGI [34] | TGI [35] | TGI [36] | TGI [37] | TGI [38] | TGI [39] | TGI [40] | TGI [41] | TGI [42] | TGI [43] | TGI [44] | TGI [45] | TGI [46] | TGI [47] | TGI [48] | TGI [49] | TGI [50] | TGI [51] | TGI [52] | TGI [53] | TGI [54] | TGI [55]
